Source: patent US7947717B2 (priority 2008, dated 2011)
Where two headings read alike, the source gives them in different places.

Legend:
lethal factor (LF) = lethal factor (LF) (Bacillus anthracis, UniProt P15917); assay: biochemical; format: biochemical
RAW 264.7 cells = format: cell-based, Murine
BoNT A = BoNT A (Clostridium botulinum, UniProt P0DPI0); assay: biochemical
physchem = details: 23 °C, pH 7.4, aqueous with cosolvent or surfactant or cyclodextrin, kinetic from dmso stock
MMP-2 = biological target: T1, MMP-2 (Homo sapiens, UniProt P08253); assay: MMP-2 assay (Anaspec kit); format: biochemical
T1 construct: purchased Anaspec, Inc. 71151/71155
T1 sequence (P08253 110-660): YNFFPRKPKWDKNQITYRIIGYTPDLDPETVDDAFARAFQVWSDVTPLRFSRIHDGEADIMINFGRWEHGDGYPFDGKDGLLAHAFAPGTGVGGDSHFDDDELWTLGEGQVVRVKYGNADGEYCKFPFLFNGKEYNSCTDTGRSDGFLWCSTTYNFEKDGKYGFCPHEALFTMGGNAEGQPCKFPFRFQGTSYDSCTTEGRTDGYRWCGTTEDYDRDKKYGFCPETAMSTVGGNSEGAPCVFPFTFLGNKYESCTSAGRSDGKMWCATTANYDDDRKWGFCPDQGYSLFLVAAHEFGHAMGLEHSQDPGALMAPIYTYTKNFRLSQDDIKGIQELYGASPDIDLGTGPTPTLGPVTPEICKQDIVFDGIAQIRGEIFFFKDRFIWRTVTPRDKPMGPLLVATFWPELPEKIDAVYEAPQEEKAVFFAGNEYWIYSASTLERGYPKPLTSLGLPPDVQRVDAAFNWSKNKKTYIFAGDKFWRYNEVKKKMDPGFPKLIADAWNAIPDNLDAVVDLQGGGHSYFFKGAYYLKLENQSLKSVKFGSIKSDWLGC

[1] = tested on: Bacillus anthracis Sterne spores; parameters: species or system A/J mice; details: mouse, in vivo
MMP-9 = biological target: T2, MMP-9 (Homo sapiens, UniProt P14780); assay: MMP-9 assay (Anaspec kit); format: biochemical
T2 construct: purchased Anaspec, Inc. 71151/71155
T2 sequence (P14780 107-707 limits assumed): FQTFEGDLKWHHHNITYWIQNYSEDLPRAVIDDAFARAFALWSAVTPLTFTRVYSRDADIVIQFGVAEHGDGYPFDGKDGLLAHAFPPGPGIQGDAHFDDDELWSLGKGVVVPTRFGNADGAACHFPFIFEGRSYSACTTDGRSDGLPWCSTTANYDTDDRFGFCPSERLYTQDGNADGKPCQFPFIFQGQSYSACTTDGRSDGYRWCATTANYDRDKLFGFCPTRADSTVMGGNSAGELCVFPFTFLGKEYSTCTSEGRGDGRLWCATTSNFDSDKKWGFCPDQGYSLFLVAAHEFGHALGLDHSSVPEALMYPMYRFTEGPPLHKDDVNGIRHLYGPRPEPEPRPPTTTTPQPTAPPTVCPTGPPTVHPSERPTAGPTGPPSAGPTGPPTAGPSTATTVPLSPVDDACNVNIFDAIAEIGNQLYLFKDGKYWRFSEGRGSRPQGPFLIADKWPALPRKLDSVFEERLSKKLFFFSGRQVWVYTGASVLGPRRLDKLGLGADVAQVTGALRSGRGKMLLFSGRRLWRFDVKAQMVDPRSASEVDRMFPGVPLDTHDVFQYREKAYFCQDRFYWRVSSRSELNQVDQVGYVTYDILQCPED

LF metalloproteinase = LF metalloproteinase (Bacillus anthracis, UniProt P15917); details: read-out: Ki of LF metalloproteinase activity; cited from earlier work
Sequence of LF metalloproteinase (P15917 34-809 limits assumed): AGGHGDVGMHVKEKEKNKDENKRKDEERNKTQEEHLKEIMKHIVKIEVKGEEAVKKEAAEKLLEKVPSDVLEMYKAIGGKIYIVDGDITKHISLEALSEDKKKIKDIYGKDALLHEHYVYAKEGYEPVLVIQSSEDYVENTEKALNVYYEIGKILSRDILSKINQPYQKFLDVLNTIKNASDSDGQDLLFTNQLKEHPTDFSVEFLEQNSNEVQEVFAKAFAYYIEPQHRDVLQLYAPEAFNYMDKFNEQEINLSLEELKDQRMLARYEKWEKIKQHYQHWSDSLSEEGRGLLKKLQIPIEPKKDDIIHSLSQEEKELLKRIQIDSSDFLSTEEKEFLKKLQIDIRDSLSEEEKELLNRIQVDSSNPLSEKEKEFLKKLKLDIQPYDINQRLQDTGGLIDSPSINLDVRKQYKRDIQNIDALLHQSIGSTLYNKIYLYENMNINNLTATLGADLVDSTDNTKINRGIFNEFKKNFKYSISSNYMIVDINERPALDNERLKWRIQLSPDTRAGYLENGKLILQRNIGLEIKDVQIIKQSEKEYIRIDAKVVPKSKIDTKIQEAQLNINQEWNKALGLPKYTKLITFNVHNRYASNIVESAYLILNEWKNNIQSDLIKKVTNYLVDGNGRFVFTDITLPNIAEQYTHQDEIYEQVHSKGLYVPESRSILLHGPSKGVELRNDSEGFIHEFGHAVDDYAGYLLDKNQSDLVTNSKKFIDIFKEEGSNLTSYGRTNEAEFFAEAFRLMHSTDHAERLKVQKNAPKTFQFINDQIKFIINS

human CYP2C9 = human CYP2C9 (Homo sapiens, UniProt P11712); assay: biochemical
Sequence of human CYP2C9 (P11712 whole entry): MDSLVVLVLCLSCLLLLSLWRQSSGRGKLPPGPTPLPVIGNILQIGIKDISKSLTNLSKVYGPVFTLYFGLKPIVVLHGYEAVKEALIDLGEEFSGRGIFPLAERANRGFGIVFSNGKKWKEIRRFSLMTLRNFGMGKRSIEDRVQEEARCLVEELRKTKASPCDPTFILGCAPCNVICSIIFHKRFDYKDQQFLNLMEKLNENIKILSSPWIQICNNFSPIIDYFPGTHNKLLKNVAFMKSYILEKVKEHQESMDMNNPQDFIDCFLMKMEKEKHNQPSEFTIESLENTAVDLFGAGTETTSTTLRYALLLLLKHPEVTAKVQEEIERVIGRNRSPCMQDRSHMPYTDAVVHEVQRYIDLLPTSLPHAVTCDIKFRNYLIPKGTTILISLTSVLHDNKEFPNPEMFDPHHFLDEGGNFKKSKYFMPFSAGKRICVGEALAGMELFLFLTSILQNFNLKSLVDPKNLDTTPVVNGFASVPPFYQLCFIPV

[2] = rat
HepG2 cells = details: human
hERG = hERG (Homo sapiens, UniProt Q12809); assay: in vitro
human CYP2D6 = human CYP2D6 (Homo sapiens, UniProt P10635); assay: biochemical
Sequence of human CYP2D6 (P10635 whole entry): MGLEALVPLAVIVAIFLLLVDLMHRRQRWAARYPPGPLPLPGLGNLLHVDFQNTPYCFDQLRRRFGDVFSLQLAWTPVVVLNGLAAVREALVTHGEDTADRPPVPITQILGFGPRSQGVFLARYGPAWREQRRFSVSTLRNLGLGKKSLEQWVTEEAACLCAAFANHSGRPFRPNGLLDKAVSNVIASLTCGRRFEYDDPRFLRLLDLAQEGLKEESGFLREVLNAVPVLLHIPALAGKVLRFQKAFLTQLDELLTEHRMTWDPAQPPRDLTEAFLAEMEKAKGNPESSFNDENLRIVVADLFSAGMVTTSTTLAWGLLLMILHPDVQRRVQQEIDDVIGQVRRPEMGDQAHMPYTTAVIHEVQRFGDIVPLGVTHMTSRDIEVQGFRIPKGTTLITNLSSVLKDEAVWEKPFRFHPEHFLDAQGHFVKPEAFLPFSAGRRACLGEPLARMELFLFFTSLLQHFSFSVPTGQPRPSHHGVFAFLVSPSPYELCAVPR

human CYP 2C19 = human CYP 2C19 (Homo sapiens, UniProt P33261); assay: biochemical
Sequence of human CYP 2C19 (P33261 whole entry): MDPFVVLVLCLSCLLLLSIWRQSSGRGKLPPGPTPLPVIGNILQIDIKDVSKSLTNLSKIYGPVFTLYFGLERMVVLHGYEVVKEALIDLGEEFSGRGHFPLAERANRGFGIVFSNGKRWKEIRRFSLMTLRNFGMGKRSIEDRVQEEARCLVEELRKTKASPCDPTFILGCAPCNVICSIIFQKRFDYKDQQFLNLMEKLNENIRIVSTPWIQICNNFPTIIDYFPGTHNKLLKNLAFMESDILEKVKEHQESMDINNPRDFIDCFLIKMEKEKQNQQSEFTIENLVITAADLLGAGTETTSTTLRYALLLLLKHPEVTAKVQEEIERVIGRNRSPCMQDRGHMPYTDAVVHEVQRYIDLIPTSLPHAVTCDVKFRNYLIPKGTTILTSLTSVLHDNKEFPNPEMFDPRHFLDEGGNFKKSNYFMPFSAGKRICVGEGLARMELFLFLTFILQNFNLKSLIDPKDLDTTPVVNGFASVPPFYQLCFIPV

in vitro [3] = details: rat, hepatocytes, pH 7.4
human CYP1A2 = biological target: T3, human CYP1A2 (Homo sapiens, UniProt P05177); assay: biochemical
T3 sequence (P05177 1-516): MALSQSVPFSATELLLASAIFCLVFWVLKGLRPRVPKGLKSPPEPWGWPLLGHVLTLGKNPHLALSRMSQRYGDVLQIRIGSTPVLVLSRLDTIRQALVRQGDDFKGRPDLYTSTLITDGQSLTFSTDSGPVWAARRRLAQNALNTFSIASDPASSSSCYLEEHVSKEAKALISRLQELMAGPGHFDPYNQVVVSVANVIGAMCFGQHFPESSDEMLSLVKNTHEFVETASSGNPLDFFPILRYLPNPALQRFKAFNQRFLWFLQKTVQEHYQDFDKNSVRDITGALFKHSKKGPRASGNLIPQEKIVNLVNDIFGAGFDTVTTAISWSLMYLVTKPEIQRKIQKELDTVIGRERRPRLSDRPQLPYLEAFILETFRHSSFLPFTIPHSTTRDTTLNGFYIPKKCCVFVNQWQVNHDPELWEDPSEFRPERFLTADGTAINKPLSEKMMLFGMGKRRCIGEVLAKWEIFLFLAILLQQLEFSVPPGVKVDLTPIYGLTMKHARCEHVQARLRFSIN

in vitro [4] = details: s9
[5] = not given; remark: listed apart in the source
[6] = rat, hepatocytes
human CYP3A4 = human CYP3A4 (Homo sapiens, UniProt P08684); assay: biochemical
human MDR1 ABCB1/Pgp = human MDR1 ABCB1/Pgp (Homo sapiens, UniProt P08183)
[7] = read-out: IC50 (μM) of selected LF compounds (Table 7)

Sequence of lethal factor (LF) (P15917 34-809 limits assumed): as the sequence (P15917 34-809 limits assumed) above
Sequence of BoNT A (P0DPI0 whole entry, looked up): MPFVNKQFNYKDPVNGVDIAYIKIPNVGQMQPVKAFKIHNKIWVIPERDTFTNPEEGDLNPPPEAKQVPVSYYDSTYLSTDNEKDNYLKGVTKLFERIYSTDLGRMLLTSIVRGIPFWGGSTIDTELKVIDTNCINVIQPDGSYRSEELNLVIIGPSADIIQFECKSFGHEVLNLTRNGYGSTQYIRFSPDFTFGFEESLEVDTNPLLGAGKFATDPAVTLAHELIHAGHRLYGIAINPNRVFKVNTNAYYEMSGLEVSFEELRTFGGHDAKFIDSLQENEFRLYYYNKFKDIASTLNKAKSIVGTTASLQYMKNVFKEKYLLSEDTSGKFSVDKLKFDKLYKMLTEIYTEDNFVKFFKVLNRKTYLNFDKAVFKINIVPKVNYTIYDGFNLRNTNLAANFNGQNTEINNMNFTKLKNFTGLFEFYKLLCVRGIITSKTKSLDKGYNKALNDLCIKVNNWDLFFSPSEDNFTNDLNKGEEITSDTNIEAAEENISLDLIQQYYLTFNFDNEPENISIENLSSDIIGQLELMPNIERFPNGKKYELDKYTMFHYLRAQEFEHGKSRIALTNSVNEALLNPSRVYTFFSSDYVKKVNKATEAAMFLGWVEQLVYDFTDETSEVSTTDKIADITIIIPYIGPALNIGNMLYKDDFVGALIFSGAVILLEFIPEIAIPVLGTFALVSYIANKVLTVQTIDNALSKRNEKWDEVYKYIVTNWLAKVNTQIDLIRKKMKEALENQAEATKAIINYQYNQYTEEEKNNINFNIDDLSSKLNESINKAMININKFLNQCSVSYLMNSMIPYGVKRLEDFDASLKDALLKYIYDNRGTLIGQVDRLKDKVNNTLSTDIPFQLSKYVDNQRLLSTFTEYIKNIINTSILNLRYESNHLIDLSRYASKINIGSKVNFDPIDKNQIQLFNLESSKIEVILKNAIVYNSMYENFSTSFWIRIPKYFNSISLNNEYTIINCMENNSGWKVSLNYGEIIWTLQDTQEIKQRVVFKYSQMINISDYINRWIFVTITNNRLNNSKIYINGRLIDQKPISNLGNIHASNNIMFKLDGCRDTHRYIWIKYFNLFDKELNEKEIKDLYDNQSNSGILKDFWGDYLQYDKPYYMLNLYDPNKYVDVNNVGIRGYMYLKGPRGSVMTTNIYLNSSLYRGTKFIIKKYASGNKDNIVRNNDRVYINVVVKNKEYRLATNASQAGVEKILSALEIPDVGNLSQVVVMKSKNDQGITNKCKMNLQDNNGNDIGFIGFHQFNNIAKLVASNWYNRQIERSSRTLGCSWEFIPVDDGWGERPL

Lucifer Yellow
Pampa (d) permeability class: Low

CC1Cc2cc(-c3nn(-c4ccccc4)cc3/C=C3\SC(=S)N(CCS(=O)(=O)O)C3=O)ccc2O1 (stereo not drawn) [Compound 39, (Z)-2-(5-((3-(2-methyl-2,3-dihydrobenzofuran-5-yl)-1-phenyl-1H-pyrazol-4-yl)methylene)-4-oxo-2-thioxothiazolidin-3-yl)ethanesulfonic acid]
IC50 (lethal factor (LF); pH 7.4, read-out: LF IC50): 2.29 µM
protection of macrophages from LF/PA-induced cell death (RAW 264.7 cells): protect macrophages from LF/PA-induced cell death
IC50 (BoNT A): > 200 µM

COCCc1ccc(OCC(O)CNC(C)C)cc1 (stereo not drawn) [Metoprolol]
Pampa (d) permeability class: High

CC(=O)Oc1ccccc1C(=O)O [acetylsalicylic acid, reference compound]
solubility (physchem): > 100 µg/mL

O=C(O)CN1C(=O)/C(=C/c2cn(-c3ccc(Cl)cc3)nc2-c2ccc(Cl)cc2)SC1=S [Compound 34, (Z)-2-(5-((1,3-bis(4-chlorophenyl)-1H-pyrazol-4-yl)methylene)-4-oxo-2-thioxothiazolidin-3-yl)acetic acid]
inhibition of MMP-2 (in words) (MMP-2): did not inhibit
IC50 (lethal factor (LF); pH 7.4, read-out: LF IC50): 2.95 µM
survival compared to control group (in words, FIG. 3) [1]: survived significantly better than control
protection of macrophages from LF/PA-induced cell death (RAW 264.7 cells): protect macrophages from LF/PA-induced cell death
IC50 (BoNT A): 8.18 µM
inhibition of MMP-9 (in words) (MMP-9): did not inhibit

CNC(=O)[C@H](Cc1c[nH]c2ccccc12)NC(=O)[C@@H](CC(=O)NO)CC(C)C [GM6001]
Ki (LF metalloproteinase): ~5 µM

O=C(O)CN1C(=O)C(=Cc2cc(-c3ccc(F)cc3)on2)SC1=S [Compound 25, 2-(5-((5-(4-fluorophenyl)isoxazol-3-yl)methylene)-4-oxo-2-thioxothiazolidin-3-yl)acetic acid]
IC50 (MMP-2): 10 µM
IC50 (lethal factor (LF)): 12.4 µM
IC50 (BoNT A): > 200 µM
IC50 (MMP-9): > 100 µM

O=C(O)CN1C(=O)/C(=C2/C(=O)N(CC(=O)Nc3cccc(Cl)c3)c3ccccc32)SC1=S [Compound 62, (Z)-2-(5-(1-(2-(3-chlorophenylamino)-2-oxoethyl)-2-oxoindolin-3-ylidene)-4-oxo-2-thioxothiazolidin-3-yl)acetic acid]
IC50 (MMP-2): > 25 µM
IC50 (lethal factor (LF); pH 7.4, read-out: LF IC50): 4.4 µM
IC50 (BoNT A): > 200 µM
IC50 (MMP-9): > 25 µM

CC(C)NCC(O)COc1cccc2ccccc12 (stereo not drawn) [Propranolol]
Pampa (d) permeability class: High

O=C1/C(=C/c2cn(-c3ccccc3)nc2-c2ccc(OCc3ccc(Cl)cc3)cc2)SC(=S)N1CCS(=O)(=O)O [Compound 38, (Z)-2-(5-((3-(4-(4-chlorobenzyloxy)phenyl)-1-phenyl-1H-pyrazol-4-yl)methylene)-4-oxo-2-thioxothiazolidin-3-yl)ethanesulfonic acid]
IC50 (MMP-2): 10.1 µM
IC50 (lethal factor (LF); pH 7.4, read-out: LF IC50): 2.45 µM
protection of macrophages from LF/PA-induced cell death (RAW 264.7 cells): protect macrophages from LF/PA-induced cell death
IC50 (BoNT A): > 200 µM

COc1ccc(-c2ccc(/C=C3\SC(=S)N(CC(=O)O)C3=O)o2)cc1Cl [Compound 1]
IC50 (human CYP2C9): 28.3 µM
Plasma Stab. T = 30 min (l) [2]: 90%
Cytox. (c) Cytotoxicity against HepG2 cells (HepG2 cells): Nontoxic up to 100 μM
inhibition at 30 µM (hERG): 58%
IC50 (human CYP2D6): 30.5 µM
IC50 (lethal factor (LF)): 0.29 µM
IC50 (human CYP 2C19): 31.3 µM
solubility kinetic (physchem): < 10 µg/mL
half-life (in vitro [3]): 37.1 min
hepatocyte CLint (in vitro [3]): 21.6 µL/min/1e6 cells
IC50 (human CYP1A2): 20.9 µM
half-life (in vitro [4]): 128 min
hepatocyte CLint (in vitro [4]): 5.6

COc1ccc(-c2nn(-c3ccccc3)cc2/C=C2\SC(=S)N(CCS(=O)(=O)O)C2=O)cc1 [Compound 40, (Z)-2-(5-((3-(4-methoxyphenyl)-1-phenyl-1H-pyrazol-4-yl)methylene)-4-oxo-2-thioxothiazolidin-3-yl)ethanesulfonic acid]
IC50 (MMP-2): 34.5 µM
IC50 (lethal factor (LF); pH 7.4, read-out: LF IC50): 2.04 µM
protection of macrophages from LF/PA-induced cell death (RAW 264.7 cells): protect macrophages from LF/PA-induced cell death
IC50 (BoNT A): > 200 µM

O=C(O)CN1C(=O)/C(=C/c2ccc(-c3cccs3)s2)SC1=S [Compound 66, (Z)-2-(4-oxo-5-((5-(thiophen-2-yl)thiophen-2-yl)methylene)-2-thioxothiazolidin-3-yl)acetic acid]
IC50 (human CYP2C9): > 100 µM
Plasma Stab. T = 30 min (l) [2]: 90%
Cytox. (c) Cytotoxicity against HepG2 cells (HepG2 cells): Nontoxic up to 100 μM
inhibition at 30 µM (hERG): 29%
Pampa (d) permeability class: Med.
Liver S9 Stab t1/2 (m) [5]: Degraded
IC50 (lethal factor (LF); [7]): 2.3 µM
Met. Stab. t1/2 (k) [6]: Degraded
solubility kinetic (physchem): < 10 µg/mL

Cc1ccc(-c2cc(C=C3SC(=S)N(CC(=O)O)C3=O)no2)cc1 [Compound 22, 2-(4-oxo-2-thioxo-5-((5-p-tolylisoxazol-3-yl)methylene)thiazolidin-3-yl)acetic acid]
IC50 (MMP-2): < 10 µM
IC50 (lethal factor (LF)): 5.9 µM
IC50 (BoNT A): 130 µM
IC50 (MMP-9): > 100 µM

O=C(O)CN1C(=O)/C(=C/c2ccc(-c3ccc(Cl)c(Cl)c3)o2)SC1=S [Compound 64]
IC50 (human CYP2C9): > 50 µM
Plasma Stab. T = 30 min (l) [2]: 79%
Cytox. (c) Cytotoxicity against HepG2 cells (HepG2 cells): Nontoxic up to 100 μM
inhibition at 30 µM (hERG): 67%
Pampa (d) permeability class: Med.
IC50 (human CYP2D6): 47.6 µM
Liver S9 Stab t1/2 (m) [5]: Degraded
IC50 (human CYP3A4): > 50 µM
IC50 (lethal factor (LF); [7]): 0.26 µM
IC50 (human CYP 2C19): 36.9 µM
Met. Stab. t1/2 (k) [6]: Degraded
solubility kinetic (physchem): < 10 µg/mL
IC50 (human CYP1A2): 2.79 µM

O=C(O)CN1C(=O)C(=Cc2cc(-c3ccc(Br)cc3)on2)SC1=S [Compound 26, 2-(5-((5-(4-bromophenyl)isoxazol-3-yl)methylene)-4-oxo-2-thioxothiazolidin-3-yl)acetic acid]
IC50 (MMP-2): > 100 µM
IC50 (lethal factor (LF)): 17.3 µM
IC50 (BoNT A): > 200 µM
IC50 (MMP-9): 27.4 µM

O=C(O)CN1C(=O)/C(=C/c2ccc(-c3cc(C(F)(F)F)ccc3Cl)o2)SC1=S [Compound 65]
IC50 (human CYP2C9): > 100 µM
Plasma Stab. T = 30 min (l) [2]: 82%
Cytox. (c) Cytotoxicity against HepG2 cells (HepG2 cells): Nontoxic up to 100 μM
inhibition at 30 µM (hERG): 45%
IC50 (human MDR1 ABCB1/Pgp): > 100 µM
IC50 (human CYP2D6): > 100 µM
IC50 (lethal factor (LF); [7]): 0.19 µM
IC50 (human CYP 2C19): > 100 µM
solubility kinetic (physchem): < 10 µg/mL
half-life (in vitro [3]): 42.4 min
hepatocyte CLint (in vitro [3]): 19.8 µL/min/1e6 cells
IC50 (human CYP1A2): 20.5 µM
half-life (in vitro [4]): 37.3 min
hepatocyte CLint (in vitro [4]): 25
